Measurements as given in patent US20110207697A1, “XANTHOHUMOL COMPOSITIONS AND METHODS FOR TREATING SKIN DISEASES OR DISORDERS” (Betal, LLC, priority 2008, published 2011).

Legend:
[1] = HORAC hydroxyl radical ORAC; details: FIG. 2 radar chart
Procedure: [table] […] The SOAC scores are not included in this figure; ORAC values used are the sum of lipophilic and hydrophilic results. For each assay category, scaling was made logarithmic so that the plot on the chart resembles the associated rating. […] The larger the spatial area, the higher the overall antioxidative capacity. […] Both hydrophilic and lipophilic oxygen radical absorbance capacity (ORAC) assays were carried out at Brunswick Laboratory (Wareham, Mass.) based on the modified ORACfl method reported by Ou et al. (2001 J. Agric. Food Chem. 49: 4619-4626, 2002 J. Agr. Food Chem. 50: 3122-3128). Trolox, a water-soluble vitamin E analog, was used as the calibration standard. The data are expressed as mmole of Trolox equivalents per gram (mmol TE/g). The acceptable precision of the ORAC assay is a 15% relative standard deviation. […] Hydroxyl radical ORAC (HOR-AC) is expressed as mmole caffeic acid equivalent per gram (mmol CAE/g). […] The peroxyl nitrite ORAC (NORAC) result is expressed as mmol TE/g. Alpha-tocopherol (vitamin E) was used as the calibration standard, and the singlet oxygen absorbance capacity (SOAC) result is expressed as mmole a-tocopherol equivalent (mmol VtE) per gram (Aubry et al. 1989). […] Radical-scavenging activity was measured by the change in absorbance at 517 nm with the DPPH result expressed as mmol TE/g. […] The FRAP result is expressed as mmol TE/g (Ou et al. 2002b). […]

[2] = Lipophilic oxygen radical absorbance capacity (ORAC-L); details: lipid soluble antioxidant capacity; expressed as mmol TE/g; — = No activity detected
Text: Thus the ORAC method has become a widely used method for assessing antioxidant capacity in biological samples and foods. However, because of its inability to measure both hydrophilic and lipophilic antioxidants, the method has its limitations. An ORAC method for lipophilic antioxidants was further developed and validated using fluorescein as the fluorescent probe (Prior et al. 2003 J. Agric. Food Chem. 51: 3273-3279). […] In the present work, the ORAC value is expressed as the sum of values of both the water-soluble and fat-soluble parts. […] Both hydrophilic and lipophilic oxygen radical absorbance capacity (ORAC) assays were carried out at Brunswick Laboratory (Wareham, Mass.) based on the modified ORACfl method reported by Ou et al. (2001 J. Agric. Food Chem. 49: 4619-4626, 2002 J. Agr. Food Chem. 50: 3122-3128). Trolox, a water-soluble vitamin E analog, was used as the calibration standard. The data are expressed as mmole of Trolox equivalents per gram (mmol TE/g). […] Hydroxyl radical ORAC (HOR-AC) is expressed as mmole caffeic acid equivalent per gram (mmol CAE/g). […] The peroxyl nitrite ORAC (NORAC) result is expressed as mmol TE/g. […] Radical-scavenging activity was measured by the change in absorbance at 517 nm with the DPPH result expressed as mmol TE/g. […] The FRAP result is expressed as mmol TE/g (Ou et al. 2002b).

[3] = Singlet oxygen absorbance capacity (SOAC)
Text: [table] Alpha-tocopherol (vitamin E) was used as the calibration standard, and the SOAC result is expressed as mmol VtE/g. The higher the SOAC score, the higher the singlet oxygen-quenching capacity. […] Singlet oxygen has been postulated to be a highly reactive and toxic intermediate against skin. It is known that the acne-causing bacterium P. acnes naturally produces high amounts of intracellular porphyrins, mostly coproporphyrin (Ashkenazi et al. 2003). Singlet oxygen can be generated on the skin surface from P. acnes porphyrins under sunlight and induce serious skin damage ([…] et al. 1996 Biochem. Biophys. Res. Commun. 223: 578-582). Various skin disorders progress through a singlet oxygen-dependent mechanism, including acne, atopic dermatitis, and skin aging. Both hydrophilic and lipophilic oxygen radical absorbance capacity (ORAC) assays were carried out at Brunswick Laboratory (Wareham, Mass.) based on the modified ORACfl method reported by Ou et al. (2001 J. Agric. Food Chem. 49: 4619-4626, 2002 J. Agr. Food Chem. 50: 3122-3128). Trolox, a water-soluble vitamin E analog, was used as the calibration standard. The data are expressed as mmole of Trolox equivalents per gram (mmol TE/g). The acceptable precision of the ORAC assay is a 15% relative standard deviation. Caffeic acid was used as the calibration standard. Hydroxyl radical ORAC (HOR-AC) is expressed as mmole caffeic acid equivalent per gram (mmol CAE/g). Trolox was used as the calibration standard. The peroxyl nitrite ORAC (NORAC) result is expressed as mmol TE/g. Alpha-tocopherol (vitamin E) was used as the calibration standard, and the singlet oxygen absorbance capacity (SOAC) result is expressed as mmole a-tocopherol equivalent (mmol VtE) per gram (Aubry et al. 1989). […] Radical-scavenging activity was measured by the change in absorbance at 517 nm with the DPPH result expressed as mmol TE/g. […] The FRAP result is expressed as mmol TE/g (Ou et al. 2002b). Superoxide dismutase (SOD) was used as a calibration standard; the SOD result is expressed as kilo unit SOD equivalent (kunitSODeq) per gram.

## COc1cc(O)c(CC=C(C)C)c(O)c1C(=O)/C=C/c1ccc(O)cc1 [Xanthohumol (7), 3′-[3,3-dimethylallyl]-2′,4′,4-trihydroxy-6′-methoxychalcone]
[1]
  quenching activity against hydroxyl radical (HORAC), rank among hop components: highest quenching activity
[2]
  ORAC-L (Trolox equivalent): 2.1 Trolox equivalent
[3]
  SOAC value, times higher than that of vitamin E or Polyphenon 60: 8-15 times
[3]; expressed as mmol VtE/g
  SOAC (Vitamin E equivalent): 14.1 Vitamin E equivalent
